In patent US20150183791A1, “IMIDAZO[1,2-b]PYRIDAZINE-BASED COMPOUNDS, COMPOSITIONS COMPRISING THEM, AND METHODS OF THEIR USE” (LEXICON PHARMACEUTICALS, INC., priority 2013, published 2015):

Molecular target: AAK1 (full-length human protein) (Homo sapiens, UniProt Q2M2I8)
Assay: P81 filter plate assay
Type: biochemical
Description: Compounds were serially diluted into a Labcyte LDV plate (Labcyte, cat# LP-0200) using a Mutiprobe (PerkinElmer) and Biomek FX (Beckman Coulter) so that the highest compound concentration was at 96 μM. Compounds were then pinged (75 nL per well) into a Greiner 384-well reaction plate (Greiner, #781076) using an ECHO 550 Liquid Handler (Labcyte). A total of 12 μl reaction buffer (IMAP buffer containing Tween and DTT, from Molecular Devices) was then added to each well of columns 1 and 13 for the negative controls and 12 μl of 2×AAK1 (0.2 nM full-length human protein, NCBI accession no. NP_055726.2) was added to the remaining wells. Enzyme was then pre-incubated with compound for 10 minutes at room temperature. Reactions were initiated upon Minitrak (PerkinElmer) addition of 12 μl substrate mix containing 2× Mu2 (0.2 μM, full length human protein), 2× cold ATP (2 μM), and 1.3 μCi of hot ^33P-ATP. Reactions proceeded for one hour at room temperature. Meanwhile, Millipore 384-well P81 filter plates (Millipore, catalog # MZPHN0 W10) were placed on a plate washer (Zoom ZW, from Titertek) and pre-wet with 50 μl 1% phosphoric acid. Kinase reactions were then stopped upon addition of 24 μl of 2% phosphoric acid to each well and the Minitrak was then used to transfer 40 μl from each well into the pre-wet Millipore 384-well P81 filter plates. Reaction mixtures were incubated for 10 minutes at room temperature in the P81 plates, followed by washing five times with 100 μl/well of 1% phosphoric acid using the Zoom filter washer. The bottom of each filter plate was sealed followed by addition of 20 μl Microscint 40 to each well, sealing the top of the plates with Flashplate cover, and then waiting one hour until reading on the TopCount (Perkin Elmer).

[1] = same assay, given as numeric bound instead of class symbol
[2] = 0.2 nM-scale full-length human AAK1, Mu2 substrate, 33P-ATP, one hour at room temperature, class symbols

Chain of AAK1 (full-length human protein) (Q2M2I8 1-863 isoform Q2M2I8-2): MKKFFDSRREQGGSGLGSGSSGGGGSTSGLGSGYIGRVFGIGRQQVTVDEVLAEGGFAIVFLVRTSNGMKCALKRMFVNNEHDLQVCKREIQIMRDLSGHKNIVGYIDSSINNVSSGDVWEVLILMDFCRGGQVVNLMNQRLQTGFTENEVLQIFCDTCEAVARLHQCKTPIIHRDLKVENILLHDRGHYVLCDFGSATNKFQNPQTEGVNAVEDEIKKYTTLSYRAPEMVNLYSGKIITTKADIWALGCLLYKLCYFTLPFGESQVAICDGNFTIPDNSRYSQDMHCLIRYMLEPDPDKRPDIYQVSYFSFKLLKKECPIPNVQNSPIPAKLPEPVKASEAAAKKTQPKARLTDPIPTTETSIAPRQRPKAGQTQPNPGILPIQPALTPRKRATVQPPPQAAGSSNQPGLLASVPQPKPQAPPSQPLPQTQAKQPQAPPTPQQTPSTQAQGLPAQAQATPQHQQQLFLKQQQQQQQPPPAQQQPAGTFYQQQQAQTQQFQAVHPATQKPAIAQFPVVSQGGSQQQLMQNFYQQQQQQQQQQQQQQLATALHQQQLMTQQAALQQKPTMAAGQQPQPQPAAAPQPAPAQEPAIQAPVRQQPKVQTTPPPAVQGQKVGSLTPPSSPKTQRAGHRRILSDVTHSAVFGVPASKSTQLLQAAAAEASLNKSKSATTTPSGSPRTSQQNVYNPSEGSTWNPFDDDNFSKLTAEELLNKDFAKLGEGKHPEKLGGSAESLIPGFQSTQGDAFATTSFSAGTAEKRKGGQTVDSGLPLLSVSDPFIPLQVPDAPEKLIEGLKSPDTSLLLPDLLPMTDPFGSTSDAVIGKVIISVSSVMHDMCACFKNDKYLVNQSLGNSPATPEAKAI

Row | Structure (SMILES) | IC50 [1] | IC50 [2]
1 | CC(C)(C)Cn1cc(-c2ccc3nccn3n2)cn1 [6-(1-Neopentyl-1H-pyrazol-4-yl)imidazo[1,2-b]pyridazine] | > 300 nM | –
2 | Cc1cnc2ccc(-c3ccn(CCC(C)C)c(=O)c3)nn12 [1-Isopentyl-4-(3-methylimidazo[1,2-b]pyridazin-6-yl)pyridin-2(1H)-one] | – | ≤ 10 nM
3 | CC(C)C[C@@H](Cn1ccc(-c2ccc3nccn3n2)cc1=O)N1C(=O)c2ccccc2C1=O [(S)-2-(1-(4-(Imidazo[1,2-b]pyridazin-6-yl)-2-oxopyridin-1(2H)-yl)-4-methylpentan-2-yl)isoindoline-1,3-dione] | > 300 nM | –
4 | COc1ncccc1-c1cnc2ccc(-c3ccn(CCC(C)C)c(=O)c3)nn12 [1-isopentyl-4-(3-(2-methoxypyridin-3-yl)imidazo[1,2-b]pyridazin-6-yl)pyridin-2(1H)-one] | – | ≤ 10 nM
5 | CC(C)C[C@H](N)Cn1ccc(-c2ccc3nccn3n2)cc1=O [(S)-1-(2-Amino-4-methylpentyl)-4-(imidazo[1,2-b]pyridazin-6-yl)pyridin-2(1H)-one] | > 300 nM | –
6 | COc1ncccc1-c1cnc2ccc(-c3ccn(C[C@@H](N)CC(C)C)c(=O)c3)nn12 [(S)-1-(2-Amino-4-methylpentyl)-4-(3-(2-methoxypyridin-3-yl)imidazo[1,2-b]pyridazin-6-yl)pyridin-2(1H)-one] | – | 10 to 100 nM
7 | Cc1cnc2ccc(-c3ccn(C[C@@H](N)CC(C)C)c(=O)c3)nn12 [(S)-1-(2-Amino-4-methylpentyl)-4-(3-methylimidazo[1,2-b]pyridazin-6-yl)pyridin-2(1H)-one] | > 300 nM | –
8 | CCOc1ncccc1-c1cnc2ccc(-c3ccn(CCC(C)C)c(=O)c3)nn12 [4-(3-(2-Ethoxypyridin-3-yl)imidazo[1,2-b]pyridazin-6-yl)-1-isopentylpyridin-2(1H)-one] | – | ≤ 10 nM
9 | CC(C)(C)Cn1cc(-c2ccc3ncc(Cl)n3n2)cn1 [3-Chloro-6-(1-neopentyl-1H-pyrazol-4-yl)imidazo[1,2-b]pyridazine] | – | 10 to 100 nM
10 | CC(C)CCn1cc(-c2ccc3nccn3n2)cn1 [6-(1-Isopentyl-1H-pyrazol-4-yl)imidazo[1,2-b]pyridazine] | – | 100 to 1000 nM
11 | COc1nc(C)ccc1-c1cnc2ccc(-c3ccn(CCC(C)C)c(=O)c3)nn12 [1-isopentyl-4-(3-(2-methoxy-6-methylpyridin-3-yl)imidazo[1,2-b]pyridazin-6-yl)pyridin-2(1H)-one] | – | ≤ 10 nM
12 | Cc1cnc2ccc(-c3ccn(CCC(C)(C)C)c(=O)c3)nn12 [1-(3,3-Dimethylbutyl)-4-(3-methylimidazo[1,2-b]pyridazin-6-yl)pyridin-2(1H)-one] | – | 10 to 100 nM
13 | COc1ncccc1-c1cnc2ccc(-c3cnn(CCC(C)C)c3)nn12 [6-(1-Isopentyl-1H-pyrazol-4-yl)-3-(2-methoxypyridin-3-yl)imidazo[1,2-b]pyridazine] | – | ≤ 10 nM
14 | CC(C)CCn1ccc(-c2ccc3ncc(Cl)n3n2)cc1=O [4-(3-Chloroimidazo[1,2-b]pyridazin-6-yl)-1-isopentylpyridin-2(1H)-one] | – | ≤ 10 nM
15 | CC(C)CCn1ccc(-c2ccc3ncc(Br)n3n2)cc1=O [4-(3-Bromoimidazo[1,2-b]pyridazin-6-yl)-1-isopentylpyridin-2(1H)-one] | – | ≤ 10 nM
16 | CC(=O)c1cnc2ccc(-c3ccn(CCC(C)C)c(=O)c3)nn12 [4-(3-Acetylimidazo[1,2-b]pyridazin-6-yl)-1-isopentylpyridin-2(1H)-one] | – | 10 to 100 nM
17 | COc1ncc(F)cc1-c1cnc2ccc(-c3ccn(CCC(C)C)c(=O)c3)nn12 [4-(3-(5-Fluoro-2-methoxypyridin-3-yl)imidazo[1,2-b]pyridazin-6-yl)-1-isopentylpyridin-2(1H)-one] | – | ≤ 10 nM
18 | CC(C)OC(=O)n1cc(-c2ccc3nccn3n2)cn1 [Isopropyl 4-(imidazo[1,2-b]pyridazin-6-yl)-1H-pyrazole-1-carboxylate] | > 300 nM | –
19 | COc1ncccc1-c1cnc2ccc(-c3cnn(C(=O)OC(C)C)c3)nn12 [Isopropyl 4-(3-(2-methoxypyridin-3-yl)imidazo[1,2-b]pyridazin-6-yl)-1H-pyrazole-1-carboxylate] | – | ≤ 10 nM
20 | CC(C)C[C@H](N)Cn1ccc(-c2ccc3ncc(Cl)n3n2)cc1=O [(S)-1-(2-Amino-4-methylpentyl)-4-(3-chloroimidazo[1,2-b]pyridazin-6-yl)pyridin-2(1H)-one] | – | 100 to 1000 nM
21 | COc1ncccc1-c1cnc2ccc(-c3cnn(CC(C)(C)C)c3)nn12 [3-(2-Methoxypyridin-3-yl)-6-(1-neopentyl-1H-pyrazol-4-yl)imidazo[1,2-b]pyridazine] | – | ≤ 10 nM
22 | CC(C)C[C@H](N)Cn1ccc(-c2ccc3ncc(Br)n3n2)cc1=O [(S)-1-(2-Amino-4-methylpentyl)-4-(3-bromoimidazo[1,2-b]pyridazin-6-yl)pyridin-2(1H)-one] | – | 100 to 1000 nM
23 | CC(C)(C)Cn1cc(-c2ccc3ncc(Br)n3n2)cn1 [3-Bromo-6-(1-neopentyl-1H-pyrazol-4-yl)imidazo[1,2-b]pyridazine] | – | 10 to 100 nM
24 | CC(C)CCn1cc(-c2ccc3ncc(Br)n3n2)cn1 [3-Bromo-6-(1-isopentyl-1H-pyrazol-4-yl)imidazo[1,2-b]pyridazine] | – | ≤ 10 nM
25 | COc1cnccc1-c1cnc2ccc(-c3cccc(C(=O)CCC(C)C)c3)nn12 [1-(3-(3-(3-Methoxypyridin-4-yl)imidazo[1,2-b]pyridazin-6-yl)phenyl)-4-methylpentan-1-one] | – | ≤ 10 nM
